Tests used:
[1] = biological target: T1, recombinant human transglutaminase 2 (Homo sapiens, UniProt P21980); experiment: Transglutaminase assay (DCC-assay): incorporation of dansylcadaverine into dimethylcasein; format: biochemical; conditions: recombinant human TG2 10 nM; dansylcadaverine incorporation into dimethylcasein; read-out: IC50 TG2
T1 construct: purchased Zedira T022
T1 sequence (P21980 1-687): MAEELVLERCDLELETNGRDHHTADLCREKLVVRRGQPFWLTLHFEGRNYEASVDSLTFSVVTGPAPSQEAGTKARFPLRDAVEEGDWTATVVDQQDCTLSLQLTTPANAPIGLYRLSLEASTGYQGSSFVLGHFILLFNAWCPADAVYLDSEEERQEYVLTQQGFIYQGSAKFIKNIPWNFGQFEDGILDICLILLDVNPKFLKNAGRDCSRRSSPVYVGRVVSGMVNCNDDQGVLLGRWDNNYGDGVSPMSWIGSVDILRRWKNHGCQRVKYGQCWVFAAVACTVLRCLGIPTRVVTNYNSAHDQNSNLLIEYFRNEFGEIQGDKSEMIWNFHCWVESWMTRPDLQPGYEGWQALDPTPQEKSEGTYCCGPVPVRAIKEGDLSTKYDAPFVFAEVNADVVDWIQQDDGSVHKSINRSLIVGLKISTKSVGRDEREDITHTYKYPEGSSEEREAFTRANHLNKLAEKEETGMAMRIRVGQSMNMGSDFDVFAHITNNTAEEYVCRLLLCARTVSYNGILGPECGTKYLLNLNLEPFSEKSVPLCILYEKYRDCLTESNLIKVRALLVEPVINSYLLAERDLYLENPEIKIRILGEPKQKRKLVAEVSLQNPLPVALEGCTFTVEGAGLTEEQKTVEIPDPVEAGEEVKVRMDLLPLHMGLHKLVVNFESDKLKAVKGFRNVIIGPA
Method in brief: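 IC50 is the inhibitor level that blocks 50% of initial activity. Activity is the fluorescence slope (λex 330, λem 500 nm) between 20 and 30 min of a 37 °C run, relative to a 2% DMSO control. The enzyme is recombinant human tissue transglutaminase, 10 nM final, tested against a 1:2 inhibitor dilution series in a pH 8.0 mix with 10 mM CaCl2, 10 mM glutathione, 16.7 µM dansylcadaverine and 4 µM N,N-dimethylcasein.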

[2] = logD by shake flask method (octanol / PBS pH 7.4, HPLC); format: physicochemical; conditions: octanol / PBS pH 7.4, shake flask
Method in brief: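 LogD obtained by HPLC measurement of how the compound distributes between PBS (pH 7.4) and octanol in a shake-flask experiment.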

[3] = Caco-2 permeability assay (CacoReady kit); format: in vitro ADME; conditions: human, Caco-2, Caco-2 barrier, CacoReady kit; above 1×10^−6 cm/s classified as permeable
Method in brief: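 Compounds are tested on pre-formed Caco-2 barriers supplied as a ready-to-use kit, following the kit protocol, and the Papp value is derived to estimate intestinal absorption.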

Compound	IC50 [1] [nM]	logD [2]	Papp [3] [×10⁻⁶ cm/s]
CNC(=O)C(=O)CC[C@H](NC(=O)c1scc(C)c1Cl)C(=O)Nc1cccn(CC(=O)NC2C3CC4CC(C3)CC2C4)c1=O (stereo partly drawn) [II-43, (S)-2-(3-chloro-4-methylthiophene-2-carboxamido)-N1-(1-(2-(2-adamantylamino)-2-oxoethyl)-2-oxo-1,2-dihydropyridin-3-yl)-N6-methyl-5-oxohexanediamide]	400 to 2500	1 to 3	1 to 10
CNC(=O)C(=O)CC[C@H](NC(=O)c1cc(Br)c(Cl)s1)C(=O)Nc1cccn(CC(=O)NC2C3CC4CC(C3)CC2C4)c1=O (stereo partly drawn) [II-44, (S)-2-(4-bromo-5-chlorothiophene-2-carboxamido)-N1-(1-(2-(2-adamantylamino)-2-oxoethyl)-2-oxo-1,2-dihydropyridin-3-yl)-N6-methyl-5-oxohexanediamide]	< 40	3 to 5	1 to 10
CNC(=O)C(=O)CC[C@H](NC(=O)c1cc(Br)c(Br)s1)C(=O)Nc1cccn(CC(=O)NC2C3CC4CC(C3)CC2C4)c1=O (stereo partly drawn) [II-45, (S)-2-(4,5-dibromothiophene-2-carboxamido)-N1-(1-(2-(2-adamantylamino)-2-oxoethyl)-2-oxo-1,2-dihydropyridin-3-yl)-N6-methyl-5-oxohexanediamide]	< 40	3 to 5	1 to 10
CNC(=O)C(=O)CC[C@H](NC(=O)c1sc(Br)c(Br)c1OC)C(=O)Nc1cccn(CC(=O)NC2C3CC4CC(C3)CC2C4)c1=O (stereo partly drawn) [II-46, (S)-2-(4,5-dibromo-3-methoxythiophene-2-carboxamido)-N1-(1-(2-(2-adamantylamino)-2-oxoethyl)-2-oxo-1,2-dihydropyridin-3-yl)-N6-methyl-5-oxohexanediamide]	40 to 400	3 to 5	< 1
CNC(=O)C(=O)CC[C@H](NC(=O)c1cc(Br)co1)C(=O)Nc1cccn(CC(=O)NC2C3CC4CC(C3)CC2C4)c1=O (stereo partly drawn) [II-47, (S)-2-(4-bromofuran-2-carboxamido)-N1-(1-(2-(2-adamantylamino)-2-oxoethyl)-2-oxo-1,2-dihydropyridin-3-yl)-N6-methyl-5-oxohexanediamide]	< 40	1 to 3	1 to 10
CNC(=O)C(=O)CC[C@H](NC(=O)c1cc(Br)c(Br)o1)C(=O)Nc1cccn(CC(=O)NC2C3CC4CC(C3)CC2C4)c1=O (stereo partly drawn) [II-48, (S)-2-(4,5-dibromofuran-2-carboxamido)-N1-(1-(2-(2-adamantylamino)-2-oxoethyl)-2-oxo-1,2-dihydropyridin-3-yl)-N6-methyl-5-oxohexanediamide]	< 40	3 to 5	1 to 10
CNC(=O)C(=O)CC[C@H](NC(=O)c1cc(Cl)c(Cl)s1)C(=O)Nc1cccn(CC(=O)NC2C3CC4CC(C3)CC2C4)c1=O (stereo partly drawn) [II-49, (S)-2-(4,5-dichlorothiophene-2-carboxamido)-N1-(1-(2-(2-adamantylamino)-2-oxoethyl)-2-oxo-1,2-dihydropyridin-3-yl)-N6-methyl-5-oxohexanediamide]	< 40	3 to 5	1 to 10
CNC(=O)C(=O)CC[C@H](NC(=O)[C@@H]1CCCN1C(C)=O)C(=O)Nc1cccn(CC(=O)NC2C3CC4CC(C3)CC2C4)c1=O (stereo partly drawn) [II-50, (S)-2-((S)-1-acetylpyrrolidine-2-carboxamido)-N1-(1-(2-(2-adamantylamino)-2-oxoethyl)-2-oxo-1,2-dihydropyridin-3-yl)-N6-methyl-5-oxohexanediamide]	< 40	< 1	< 1
CNC(=O)C(=O)CC[C@H](NC(=O)c1cnnn1C)C(=O)Nc1cccn(CC(=O)NC2C3CC4CC(C3)CC2C4)c1=O (stereo partly drawn) [II-51, (S)-N1-(1-(2-(2-adamantylamino)-2-oxoethyl)-2-oxo-1,2-dihydropyridin-3-yl)-N6-methyl-2-(1-methyl-1H-1,2,3-triazole-5-carboxamido)-5-oxohexanediamide]	40 to 400	< 1	1 to 10
CNC(=O)C(=O)CC[C@H](NC(=O)c1nn[nH]n1)C(=O)Nc1cccn(CC(=O)NC2C3CC4CC(C3)CC2C4)c1=O (stereo partly drawn) [II-52, (S)-N1-(1-(2-(2-adamantylamino)-2-oxoethyl)-2-oxo-1,2-dihydropyridin-3-yl)-N6-methyl-5-oxo-2-(2H-tetrazole-5-carboxamido)hexanediamide]	400 to 2500	< 1	< 1
CNC(=O)C(=O)CC[C@H](NC(=O)c1cnccn1)C(=O)Nc1cccn(CC(=O)NC2C3CC4CC(C3)CC2C4)c1=O (stereo partly drawn) [II-53, (S)-N1-(1-(2-(2-adamantylamino)-2-oxoethyl)-2-oxo-1,2-dihydropyridin-3-yl)-N6-methyl-5-oxo-2-(pyrazine-2-carboxamido)hexanediamide]	40 to 400	1 to 3	< 1
CNC(=O)C(=O)CC[C@H](NC(=O)[C@@H]1CCCN1C)C(=O)Nc1cccn(CC(=O)NC2C3CC4CC(C3)CC2C4)c1=O (stereo partly drawn) [II-54, (S)-N1-(1-(2-(2-adamantylamino)-2-oxoethyl)-2-oxo-1,2-dihydropyridin-3-yl)-N6-methyl-2-((S)-1-methylpyrrolidine-2-carboxamido)-5-oxohexanediamide]	40 to 400	1 to 3	< 1
CNC(=O)C(=O)CC[C@H](NC(=O)[C@H]1CCNC1)C(=O)Nc1cccn(CC(=O)NC2C3CC4CC(C3)CC2C4)c1=O (stereo partly drawn) [II-55, (S)-N1-(1-(2-(2-adamantylamino)-2-oxoethyl)-2-oxo-1,2-dihydropyridin-3-yl)-N6-methyl-5-oxo-2-((S)-pyrrolidine-3-carboxamido)hexanediamide]	40 to 400	< 1	< 1
CNC(=O)C(=O)CC[C@H](NC(=O)[C@@H]1C[C@H](Br)CN1)C(=O)Nc1cccn(CC(=O)NC2C3CC4CC(C3)CC2C4)c1=O (stereo partly drawn) [II-56, (S)-2-((2S,4S)-4-bromopyrrolidine-2-carboxamido)-N1-(1-(2-(2-adamantylamino)-2-oxoethyl)-2-oxo-1,2-dihydropyridin-3-yl)-N6-methyl-5-oxohexanediamide]	40 to 400	1 to 3	< 1
CNC(=O)C(=O)CC[C@H](NC(=O)[C@@H]1CCCCN1)C(=O)Nc1cccn(CC(=O)NC2C3CC4CC(C3)CC2C4)c1=O (stereo partly drawn) [II-58, (S)-N1-(1-(2-(2-adamantylamino)-2-oxoethyl)-2-oxo-1,2-dihydropyridin-3-yl)-N6-methyl-5-oxo-2-((S)-piperidine-2-carboxamido)hexanediamide]	40 to 400	1 to 3	< 1
CNC(=O)C(=O)CC[C@H](NC(=O)[C@@H]1CCCNC1)C(=O)Nc1cccn(CC(=O)NC2C3CC4CC(C3)CC2C4)c1=O (stereo partly drawn) [II-59, (S)-N1-(1-(2-(2-adamantylamino)-2-oxoethyl)-2-oxo-1,2-dihydropyridin-3-yl)-N6-methyl-5-oxo-2-((R)-piperidine-3-carboxamido)hexanediamide]	40 to 400	1 to 3	< 1
CNC(=O)C(=O)CC[C@H](NC(=O)[C@H]1COCCN1)C(=O)Nc1cccn(CC(=O)NC2C3CC4CC(C3)CC2C4)c1=O (stereo partly drawn) [II-60, (S)-N1-(1-(2-(2-adamantylamino)-2-oxoethyl)-2-oxo-1,2-dihydropyridin-3-yl)-N6-methyl-2-((R)-morpholine-3-carboxamido)-5-oxohexanediamide]	40 to 400	< 1	< 1
